From US20180110762A1, “Compositions Methods for Treating Chronic Kidney Disease” (Merck Sharp & Dohme Corp, priority 2015, published 2018)

Legend:
[1] = tested on: male obese ZSF1 rats (diabetic nephropathy model); assay: ZSF1 rat study: GFR measurement by FITC-sinistrin clearance; assay type: in vivo
Method: The effects of Compound A (“A”) on renal function, plasma triglycerides, plasma cholesterol, kidney collagen I, kidney collagen III, renal histology, glomerular filtration rate, fibrosis score, and mRNA gene expression (profibrotic genes and integrin β3) were evaluated in male obese ZSF1 rats (a hybrid F1 of Zucker diabetic fatty rat and spontaneously hypertensive heart failure rat; a diabetic nephropathy model) when administered as in-feed for 28 weeks. Sixty obese male ZSF1 rats were randomized to five groups: Obese control (n=12), Compound A 60 mpk (n=12), Compound A 200 mpk (n=12), Compound A 400 mpk (n=12), Enalapril 10 mpk (n=12); Eight lean male ZSF1 rats were used for normal control. Renal functional changes were monitored by blood and urine analysis following in-feed dosing for 28 weeks. Compound exposure was also monitored during the study.
For the measurement of GFR, a miniaturized device (NIC-Kidney, Mannheim Pharma & Diagnostics, Mannheim, Germany) was used. In brief, the device (batteries, diodes, and microprocessor) containing an optical component was affixed on a depilated region of the back using a double-sided sticky patch (Lohmann GmbH KG, 56567, Neuwied, Germany) under isofluorane anesthesia (3% isoflurane mixed with oxygen). After a resting baseline period of 1-1.5 minutes, a bolus of FITC-sinistrin (5 mg/100 g body weight, dissolved in 0.5 mL sterile isotonic saline) was injected through the tail vein. The rat was then placed in a clean cage for recovery from anesthesia to responsible ambulation. […] The excretion kinetics of FITC-sinistrin was determined using a sampling rate of 60 measurements per minute with an excitation time of 10 milliseconds per measurement for 120 minutes after the injection. One compartment model was used for FITC-sinistrin clearance. After completion of GFR measurement, the device was gently removed from the skin and the rat returned to its home cage.

[2] = biological target: T1, Human recombinant integrin α5β1 (Homo sapiens, UniProt P05556+P08648); assay: Thermal shift assay (differential scanning fluorimetry), α5β1; assay type: binding; details: α5β1, 20 μM Compound A
T1 construct: purchased R&D Systems
Method: Differential scanning fluorimetry was performed on a LightCycler 480 II, real-time PCR instrument (Roche Diagnostics). Human recombinant integrins from R&D Systems (αvβ1, αvβ3 and α5β1) were reconstituted at a concentration of […] in assay buffer (20 mM HEPES, pH=7.3, 100 mM NaCl, 1 mM MgCl2, 1 mM MnCl2) and diluted in assay buffer with Sypro orange (SIGMA) to a final concentration of 400 nM integrin and 5× Sypro orange. A volume of 4.9 μL of this mixture of protein and dye was transferred to a 384-well plate and 100 nL of DMSO or Compound A, dissolved in DMSO, were added using an Echo 555 instrument (Labcyte). The final concentration of Compound A in the assay was 20 μM. After mixing, the assay plate was sealed, spun at 1,000×g for two minutes, and subsequently heated from 25 to 99° C. over the course of 31 min in the LightCycler 480 II instrument. Fluorescence intensity was measured using excitation/emission wavelengths of 465 and 580 nm, respectively. Changes in protein thermal stability (ΔTm) upon compound binding were analyzed by using LightCycler 480 (software provided by the manufacturer).

[3] = biological target: T2, αvβ3 purified from 293 cells overexpressing αvβ3 (Homo sapiens, UniProt P05106+P06756); assay: SPAV3 binding assay (scintillation proximity)
T2 construct: made in house; host or cells: 293 cells overexpressing αvβ3
Text: • 1. Wheat germ agglutinin Scintillation Proximity Beads (SPA): Amersham • 2. Octylglucopyranoside: Calbiochem • 3. HEPES: Calbiochem • 4. NaCl: Fisher • 5. CaCl2: Fisher • 6. MgCl2: SIGMA • 7. Phenylmethylsulfonylfluoride (PMSF): SIGMA • 8. Optiplate: PACKARD • 9. (S)-3-(4-(2-(6-aminopyridin-2-yl)ethyl)benzamido)-2-((4-(iodo-^125I)phenyl)sulfonamido)propanoic acid as found in WO0046215 (specific activity 500-1000 Ci/mmole) • 10. Test compound • 11. Purified integrin receptor: αvβ3 was purified from 293 cells overexpressing αvβ3 (Duong et al., J. Bone Min. Res., 8:S378, 1993) according to Pytela (Methods in Enzymology, 144:475, 1987) • 12. Binding buffer: 50 mM HEPES, pH 7.8, 100 mM NaCl, 1 mM Ca^2+/Mg^2+, 0.5 mM PMSF • 13. 50 mM octylglucoside in binding buffer: 50-OG buffer
• 1. Pretreatment of SPA beads: • 500 mg of lyophilized SPA beads were first washed four times with 200 ml of 50-OG buffer and once with 100 ml of binding buffer, and then resuspended in 12.5 ml of binding buffer. • 2. Preparation of SPA beads and receptor mixture • In each assay tube, 2.5 μl (40 mg/ml) of pretreated beads were suspended in 97.5 μl of binding buffer and […] of 50-OG buffer. […] (˜30 ng/μ1) of purified receptor was added to the beads in suspension with stirring at room temperature for 30 minutes. The mixture was then centrifuged at 2,500 rpm in a Beckman GPR Benchtop centrifuge for 10 minutes at 4° C. The pellets were then resuspended in 50 μl of binding buffer and 25 μl of 50-OG buffer. • 3. Reaction • The following were sequentially added into Optiplate in corresponding wells: • (i) Receptor/beads mixture (75 μl) • (ii) 25 μl of each of the following: compound to be tested, binding buffer for total binding or A-8 for non-specific binding (final concentration 1 μM) • (iii) (S)-3-(4-(2-(6-aminopyridin-2-yl)ethyl)benzamido)-2-((4-(iodo-^125I)phenyl)sulfonamido)propanoic acid as found in WO0046215 (specific activity 500-1000 Ci/mmole) in binding buffer (25 μl, final concentration 40 pM) • (iv) Binding buffer (125 μl) • (v) Each plate was sealed with plate sealer from PACKARD and incubated overnight with rocking at 4° C. • 4. Plates were counted using PACKARD TOPCOUNT • 5. % inhibition was calculated as follows: • A=total counts • B=nonspecific counts • C=sample counts
% inhibition=[{(A−B)−(C−B)}/(A−B)]/(A−B)×100

[4] = obese ZSF1 rats, 200 mpk in-feed, week 28
[5] = obese ZSF1 rats, 400 mpk in-feed, week 28

T1 sequence (P08648 42-995 limits assumed): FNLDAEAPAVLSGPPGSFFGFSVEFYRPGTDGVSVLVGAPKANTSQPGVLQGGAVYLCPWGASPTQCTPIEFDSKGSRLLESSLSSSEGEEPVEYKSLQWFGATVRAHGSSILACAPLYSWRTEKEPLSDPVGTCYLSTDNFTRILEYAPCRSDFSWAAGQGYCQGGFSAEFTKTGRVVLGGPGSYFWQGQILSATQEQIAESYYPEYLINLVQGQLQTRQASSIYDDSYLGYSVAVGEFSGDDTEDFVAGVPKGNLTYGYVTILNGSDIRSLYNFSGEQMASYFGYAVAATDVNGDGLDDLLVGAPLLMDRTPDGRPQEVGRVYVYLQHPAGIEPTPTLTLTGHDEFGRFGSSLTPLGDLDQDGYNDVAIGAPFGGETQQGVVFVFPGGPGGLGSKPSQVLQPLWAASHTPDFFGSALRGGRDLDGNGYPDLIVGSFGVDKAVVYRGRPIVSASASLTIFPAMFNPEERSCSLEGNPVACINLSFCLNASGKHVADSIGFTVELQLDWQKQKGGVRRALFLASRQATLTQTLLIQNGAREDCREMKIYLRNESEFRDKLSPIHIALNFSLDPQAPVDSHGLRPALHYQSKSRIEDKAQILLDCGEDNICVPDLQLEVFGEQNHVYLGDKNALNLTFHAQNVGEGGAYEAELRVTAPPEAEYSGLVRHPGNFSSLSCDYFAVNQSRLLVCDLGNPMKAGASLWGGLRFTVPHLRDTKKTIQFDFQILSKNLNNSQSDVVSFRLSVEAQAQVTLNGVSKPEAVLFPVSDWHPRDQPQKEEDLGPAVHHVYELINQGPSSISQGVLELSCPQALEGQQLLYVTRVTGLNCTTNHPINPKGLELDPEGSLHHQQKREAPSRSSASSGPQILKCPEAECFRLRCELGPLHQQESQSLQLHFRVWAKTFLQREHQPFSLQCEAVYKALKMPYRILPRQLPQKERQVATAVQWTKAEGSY
T1 sequence (P05556 21-728 limits assumed): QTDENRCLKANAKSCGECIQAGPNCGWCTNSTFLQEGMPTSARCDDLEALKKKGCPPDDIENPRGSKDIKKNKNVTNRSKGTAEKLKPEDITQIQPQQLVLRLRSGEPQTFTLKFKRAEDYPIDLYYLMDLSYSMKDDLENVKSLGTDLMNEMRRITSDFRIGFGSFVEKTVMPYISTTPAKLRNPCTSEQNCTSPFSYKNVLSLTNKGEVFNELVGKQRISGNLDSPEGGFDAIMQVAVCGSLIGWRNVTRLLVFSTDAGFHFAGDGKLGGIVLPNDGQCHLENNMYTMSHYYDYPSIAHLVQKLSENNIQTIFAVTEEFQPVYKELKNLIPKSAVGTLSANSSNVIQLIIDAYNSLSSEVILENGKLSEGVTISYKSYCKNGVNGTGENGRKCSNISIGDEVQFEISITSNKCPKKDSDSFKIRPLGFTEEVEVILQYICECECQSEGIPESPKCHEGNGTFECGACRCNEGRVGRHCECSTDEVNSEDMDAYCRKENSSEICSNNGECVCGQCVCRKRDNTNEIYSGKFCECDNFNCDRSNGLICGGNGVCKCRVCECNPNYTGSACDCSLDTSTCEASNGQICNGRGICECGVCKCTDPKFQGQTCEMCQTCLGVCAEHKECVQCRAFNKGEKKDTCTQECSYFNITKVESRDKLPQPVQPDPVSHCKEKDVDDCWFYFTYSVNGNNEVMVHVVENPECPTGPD
T2 sequence (P06756 31-889 limits assumed): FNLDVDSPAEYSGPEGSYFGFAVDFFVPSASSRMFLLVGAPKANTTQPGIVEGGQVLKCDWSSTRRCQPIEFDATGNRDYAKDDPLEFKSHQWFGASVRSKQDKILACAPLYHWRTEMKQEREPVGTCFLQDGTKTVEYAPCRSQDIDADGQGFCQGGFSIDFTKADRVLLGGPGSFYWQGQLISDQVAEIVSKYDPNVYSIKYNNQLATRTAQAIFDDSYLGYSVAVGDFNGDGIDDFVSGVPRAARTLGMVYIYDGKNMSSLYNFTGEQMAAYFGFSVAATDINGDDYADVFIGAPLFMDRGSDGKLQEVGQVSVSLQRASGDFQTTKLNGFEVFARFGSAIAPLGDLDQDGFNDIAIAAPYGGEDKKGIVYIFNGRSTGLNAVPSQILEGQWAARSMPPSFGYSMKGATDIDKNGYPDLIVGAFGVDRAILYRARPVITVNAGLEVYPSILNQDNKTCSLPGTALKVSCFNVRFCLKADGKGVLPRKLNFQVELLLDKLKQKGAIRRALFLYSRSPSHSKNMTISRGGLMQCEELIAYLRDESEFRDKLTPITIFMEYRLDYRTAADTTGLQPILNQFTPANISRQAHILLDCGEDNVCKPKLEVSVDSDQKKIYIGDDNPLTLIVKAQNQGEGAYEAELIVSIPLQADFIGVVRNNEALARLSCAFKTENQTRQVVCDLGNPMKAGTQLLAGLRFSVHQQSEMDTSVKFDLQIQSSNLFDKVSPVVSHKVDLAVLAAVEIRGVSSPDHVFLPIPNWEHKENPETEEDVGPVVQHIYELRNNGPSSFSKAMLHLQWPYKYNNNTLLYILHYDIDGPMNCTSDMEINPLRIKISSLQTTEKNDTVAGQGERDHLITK
T2 sequence (P06756 891-1048 partner limits assumed): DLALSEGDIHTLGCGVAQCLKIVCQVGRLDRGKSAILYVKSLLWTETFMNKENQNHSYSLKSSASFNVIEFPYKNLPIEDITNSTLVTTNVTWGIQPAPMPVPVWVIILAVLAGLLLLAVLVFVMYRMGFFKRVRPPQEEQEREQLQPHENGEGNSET
T2 sequence (P05106 27-788): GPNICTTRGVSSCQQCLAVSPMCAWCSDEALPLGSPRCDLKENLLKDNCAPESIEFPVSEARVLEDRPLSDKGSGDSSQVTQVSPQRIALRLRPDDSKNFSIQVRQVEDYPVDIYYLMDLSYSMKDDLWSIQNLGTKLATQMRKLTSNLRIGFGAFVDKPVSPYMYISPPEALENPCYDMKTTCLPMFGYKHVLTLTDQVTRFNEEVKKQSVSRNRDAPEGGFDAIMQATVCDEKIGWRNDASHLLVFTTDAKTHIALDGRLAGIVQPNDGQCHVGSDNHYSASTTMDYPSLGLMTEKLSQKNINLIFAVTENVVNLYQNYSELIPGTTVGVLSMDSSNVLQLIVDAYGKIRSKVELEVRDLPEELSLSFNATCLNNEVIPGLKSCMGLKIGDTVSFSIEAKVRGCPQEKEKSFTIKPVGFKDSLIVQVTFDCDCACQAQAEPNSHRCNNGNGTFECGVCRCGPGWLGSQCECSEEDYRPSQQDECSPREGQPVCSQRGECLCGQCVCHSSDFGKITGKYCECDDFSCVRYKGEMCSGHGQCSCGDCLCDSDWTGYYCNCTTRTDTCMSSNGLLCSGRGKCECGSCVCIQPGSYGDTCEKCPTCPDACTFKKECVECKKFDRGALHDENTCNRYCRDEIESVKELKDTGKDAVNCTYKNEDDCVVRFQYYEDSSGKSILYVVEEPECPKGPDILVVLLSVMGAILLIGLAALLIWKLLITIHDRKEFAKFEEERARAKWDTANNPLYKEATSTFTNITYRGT

ΔTm at 20 µM ([2]; first of two experiments): 8.1 °C | ΔTm at 20 µM ([2]; second of two experiments): 14 °C | IC50 [3]: 0.1 nM
Structure (SMILES): COc1ccc([C@H](CC(=O)O)N2CCN(CCCc3ccc4c(n3)NCCC4)C2=O)cn1 [Compound A, 3-{2-Oxo-3-[3-(5,6,7,8-tetrahydro-[1,8]naphthyridin-2-yl)-propyl]imidazolidin-1-yl}-3 (S)-(6-methoxy-pyridin-3-yl)-propionic acid]
effect on glomerular filtration rate ([1]; 60 mpk, 200 mpk and 400 mpk at weeks 28-30): no significant effect | Glomerular Filtration Rate ([1]; ZSF-1 rats vs untreated obese ZSF-1 rats (summary)): non-statistically significant improvements in glomerular filtration rate | Glomerular Filtration Rate ([1]; obese ZSF1 rats, 60 mpk in-feed, week 28): 609.8 ± 42.1 uLs/Min/100 gm BW | FITC-sinistrin clearance, % change of improvement compared to Obese Vehicle group [1, 4]: 8.8% | Glomerular Filtration Rate [1, 4]: 663.2 ± 50.6 uLs/Min/100 gm BW | FITC-sinistrin clearance, % change of improvement compared to Obese Vehicle group [1, 5]: 14.4% | Glomerular Filtration Rate [1, 5]: 697.5 ± 37.9 uLs/Min/100 gm BW
